Data set [1] deals with T1, human norepinephrine transporter (hNET) (Homo sapiens, UniProt P23975).
T1 construct: expressed in transfected cells; host or cells: MDCK cells
The data set is described as follows: Binding affinity to human norepinephrine transporter (hNET), [3H]Nisoxetine displacement. To be noted: membranes from MDCK cells expressing hNET, [3H]Nisoxetine 2 nM, read-out: NET binding, Ki. On the procedure: The binding affinities of certain compounds disclosed herein to the hNET were measured using competitive radioligand displacement assays in membranes prepared from MDCK cells that express the human norepinephrine transporter. Competition binding experiments were conducted by incubating hNET membranes with [^3H] Nisoxetine (2 nM), in the presence of increasing concentrations of test compounds. Incubations were carried out at 4° C. for 60 minutes in buffer containing 50 mM Tris HCl, 120 mM NaCl and 5 mM KCl (pH 7.4). The binding reaction was terminated by rapid filtration, membranes were washed and membrane-bound radioactivity was measured using a scintillation counter. Non-specific binding was measured in the presence of excess (10 μM) clomipramine as the unlabelled ligand and this value was subtracted from the total binding to yield the specific binding at each test compound concentration.
IC50 values were obtained from non-linear regression analysis of concentration-versus specific binding plots. Ki values were calculated from the IC50 values using the Cheng Prusoff correction and experimentally determined […] values for the radioligand under these assay conditions.

The subject of data set [2] is sodium channels (sodium current INa) in rat dorsal root ganglion (DRG) cells. The data set is described as follows: Sodium channel assay, whole-cell patch clamp of sodium current in isolated DRG cells. In kind it is cell-based. From the text:
The effect of compounds disclosed herein on sodium channels may be evaluated in vitro to determine their blocking properties using the whole-cell patch clamp method in isolated cardiac (human atrial myocytes) and neuronal (rat dorsal root ganglion) cells. The example below refers to a sodium channel assay using neuronal cells.
Electrophysiologic patch clamp recordings of the sodium current in isolated rat dorsal root ganglion (DRG) cells were used to measure the sodium channel blocking properties of certain compounds disclosed herein. DRG cells were isolated according to the method of Blair and Bean (J Neurosci, 22: pp. 10277-10290, 2002) and plated on treated glass coverslips. For measuring the sodium current, cells were perfused with an external solution that consists of (in mmol/L): 115 TMA chloride, 10 NaCl, 5 CsCl, 1.8 CaCl2, 1.2 MgCl2, 10 HEPES, 11 dextrose, pH adjusted to 7.4 with TMA-OH. The chemical composition of the internal solution was (in mmol/L): 115 CsF, 20 CsCl, 10 NaF, 10 HEPES, 5 EGTA; pH adjusted to 7.2 with CsOH. Currents were measured using the whole-cell variant of the patch clamp method (Crumb & Clarkson, Biophysical Journal, 57(3): 589, 1990). An Axopatch 1-B amplifier (Axon Instruments, Foster City, Calif.) was used for whole-cell voltage clamping. Creation of voltage clamp pulses and data acquisition were controlled by a PC running pClamp software (version 9.2, Axon Instruments). INa was elicited by a 40 ms pulse to −20 mV from a holding potential of −65 mV. Pacing rates of 0.1 and 3 Hz were examined. […]. Four concentrations of each test compound were added to the cell in a cumulative manner starting with the lowest test concentration. Each cell served as its own control and data are presented as % reduction of current amplitude achieved in the presence of drug. A nonlinear curve fitting routine was utilized to fit a three-parameter Hill equation to the results using MicroCal Origin, version 6.0 software. The equation was: […]

Data set [3] addresses T2, cloned human hERG channel (Homo sapiens, UniProt Q12809).
T2 construct: expressed in transfected cells; host or cells: HEK cells
Nature of the data set: In vitro effect on hERG channels, whole-cell patch clamp in HEK cells. In kind it is cell-based. The following applies: 37 °C, read-out: IhERG, 0.1 HZ, IC50. On the procedure:
Electrophysiological measurements of hERG current were made in vitro to assess the hERG block produced by certain compounds disclosed herein. hERG currents were measured in HEK cells expressing the cloned human hERG channel using the whole-cell variant of the patch clamp method. Experiments were performed at 37±1° C. An Axopatch 1-B amplifier (Axon Instruments, Foster City, Calif.) was used for whole-cell voltage clamping. Creation of voltage clamp pulses and data acquisition was controlled by a PC running pClamp software (version 9.2, Axon Instruments). After rupture of the cell membrane (entering whole-cell mode), current kinetics and amplitudes were allowed to stabilize for 3-5 minutes as the cell was dialyzed with internal solution and paced at 0.1 Hz. Cells were depolarized to +10 mV for 500 ms from a holding potential of −75 mV and peak hERG current was measured as the maximum outward deflection of the tail current elicited upon return to −40 mV (pacing rate=0.1 Hz). Four concentrations of each test compound were added to the cell in a cumulative manner starting with the lowest test concentration. Each cell served as its own control and data are presented as % reduction of current amplitude achieved in the presence of drug.
A nonlinear curve fitting routine was utilized to fit a three-parameter Hill equation to the results using MicroCal Origin, version 6.0 software. The equation was: […]

Where a name gives a salt, the structure may show the parent alone. Read-outs that look alike come from different tables or passages of the source.

T1 sequence (P23975 whole entry): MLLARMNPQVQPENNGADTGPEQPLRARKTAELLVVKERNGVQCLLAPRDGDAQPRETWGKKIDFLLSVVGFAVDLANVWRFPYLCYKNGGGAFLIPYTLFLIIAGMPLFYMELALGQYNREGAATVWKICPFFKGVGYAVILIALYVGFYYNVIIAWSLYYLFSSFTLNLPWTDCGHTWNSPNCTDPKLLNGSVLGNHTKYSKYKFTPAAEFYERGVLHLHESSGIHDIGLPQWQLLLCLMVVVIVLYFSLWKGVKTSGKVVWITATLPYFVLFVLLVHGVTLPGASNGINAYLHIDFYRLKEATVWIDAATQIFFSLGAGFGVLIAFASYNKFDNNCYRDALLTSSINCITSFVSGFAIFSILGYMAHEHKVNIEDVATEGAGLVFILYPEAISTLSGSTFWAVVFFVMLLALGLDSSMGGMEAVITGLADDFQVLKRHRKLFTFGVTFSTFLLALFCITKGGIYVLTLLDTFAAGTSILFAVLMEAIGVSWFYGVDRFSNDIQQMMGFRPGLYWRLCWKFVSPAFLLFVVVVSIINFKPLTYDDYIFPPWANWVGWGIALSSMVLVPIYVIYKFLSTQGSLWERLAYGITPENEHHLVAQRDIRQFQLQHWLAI
T2 sequence (Q12809 whole entry): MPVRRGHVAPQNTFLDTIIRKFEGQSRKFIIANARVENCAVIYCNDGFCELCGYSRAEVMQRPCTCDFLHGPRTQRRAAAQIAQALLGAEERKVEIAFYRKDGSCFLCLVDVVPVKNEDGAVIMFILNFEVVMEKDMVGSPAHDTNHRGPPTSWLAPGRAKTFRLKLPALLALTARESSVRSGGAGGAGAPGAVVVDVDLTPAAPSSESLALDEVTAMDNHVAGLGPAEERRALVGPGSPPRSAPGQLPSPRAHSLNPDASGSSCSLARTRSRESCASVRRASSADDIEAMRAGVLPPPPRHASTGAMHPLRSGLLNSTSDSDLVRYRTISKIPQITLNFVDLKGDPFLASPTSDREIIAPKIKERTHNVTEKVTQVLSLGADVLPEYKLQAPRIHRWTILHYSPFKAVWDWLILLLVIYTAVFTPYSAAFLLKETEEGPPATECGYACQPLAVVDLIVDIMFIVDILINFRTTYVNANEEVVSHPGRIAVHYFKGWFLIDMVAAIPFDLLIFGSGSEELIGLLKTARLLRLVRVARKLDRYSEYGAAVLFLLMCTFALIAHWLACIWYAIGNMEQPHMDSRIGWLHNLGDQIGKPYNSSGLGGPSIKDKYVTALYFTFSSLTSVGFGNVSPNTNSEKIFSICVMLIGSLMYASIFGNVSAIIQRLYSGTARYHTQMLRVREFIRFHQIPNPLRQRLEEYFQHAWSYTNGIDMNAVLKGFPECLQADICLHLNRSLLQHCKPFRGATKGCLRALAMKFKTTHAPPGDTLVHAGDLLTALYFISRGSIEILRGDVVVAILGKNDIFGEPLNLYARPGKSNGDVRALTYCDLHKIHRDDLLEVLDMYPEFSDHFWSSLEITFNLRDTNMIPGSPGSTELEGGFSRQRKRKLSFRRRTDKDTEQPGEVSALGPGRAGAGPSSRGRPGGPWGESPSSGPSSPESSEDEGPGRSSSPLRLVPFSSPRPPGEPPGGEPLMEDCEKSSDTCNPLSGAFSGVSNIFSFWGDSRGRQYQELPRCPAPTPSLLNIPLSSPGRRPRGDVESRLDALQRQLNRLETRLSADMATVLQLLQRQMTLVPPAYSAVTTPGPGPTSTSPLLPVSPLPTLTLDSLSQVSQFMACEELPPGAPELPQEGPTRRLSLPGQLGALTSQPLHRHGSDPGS

For the molecule `COCCOCCOCCOCCOCCOCCOCCOCCOc1ccc2c(c1)CCc1ccccc1/C2=C/CCN(C)C` [5-(3-Dimethylamino-propylidene)-10,11-dihydro-5H-dibenzo[a,d]cyclohept-Z-en-2-OmPEG8 hydrochloride salt], in data set [1] (Table 1), the Ki came to 646 µM. Also, the IC50 worked out at 16.9 µM in data set [2] (Table 1, pacing rate 3 Hz) and 26.4 µM in data set [3] (Table 1, pacing rate 0.1 Hz).

In the case of `COCCOCCOCCOCCOc1ccc2c(c1)CCc1ccccc1/C2=C\CCN(C)C` [5-(3-Dimethylamino-propylidene)-10,11-dihydro-5H-dibenzo[a,d]cyclohept-E-en-2-OmPEG4 hydrochloride salt], the Ki in data set [1] (Table 1) was 60.8 µM. In addition, the IC50 in data set [2] (Table 1, pacing rate 3 Hz) turned out to be 6.8 µM; in data set [3] (Table 1, pacing rate 0.1 Hz) it was 5.8 µM.

As to `CN(C)CC/C=C1\c2ccccc2C[C@H](O)c2ccccc21` [(S)-5-(3-Dimethylamino-propylidene)-10,11-dihydro-5H-dibenzo[a,d]cyclohept-E-en-10-ol, reference compound], the Ki in data set [1] (Table 2) came to 0.34 µM. For the same molecule, the IC50 in data set [2] (Table 2, pacing rate 3 Hz) came out at 16.6 µM; in data set [3] (Table 2, pacing rate 0.1 Hz), 23.2 µM.

`COCCOCCOCCOCCO[C@H]1Cc2ccccc2/C(=C\CCN(C)C)c2ccccc21` [(S)-5-(3-dimethylamino-propylidene)-10-OmPEG4-10,11-dihydro-5H-dibenzo[a,d]cyclohept-E-ene trifluoroacetate salt]: in data set [1] (Table 2), the Ki turned out to be 12.6 µM. For the same molecule, the IC50 in data set [2] (Table 2, pacing rate 3 Hz) was 39.4 µM; in data set [3] (Table 2, pacing rate 0.1 Hz), 24.8 µM.

Turning to `COCCOCCOCCOCCOCCOCCO[C@@H]1Cc2ccccc2/C(=C\CCN(C)C)c2ccccc21` [(R)-5-(3-dimethylamino-propylidene)-10-OmPEG6-10,11-dihydro-5H-dibenzo[a,d]cyclohept-E-ene trifluoroacetate salt], in data set [1] (Table 2), the Ki turned out to be 60.4 µM. The IC50 came to 8.1 µM in data set [2] (Table 2, pacing rate 3 Hz) and 37.9 µM in data set [3] (Table 2, pacing rate 0.1 Hz).

`COCCOCCOCCOCCOc1ccc2c(c1)CCc1ccccc1/C2=C/CCN(C)C` [5-(3-Dimethylamino-propylidene)-10,11-dihydro-5H-dibenzo[a,d]cyclohept-Z-en-2-OmPEG4 hydrochloride salt]: in data set [1] (Table 1), the Ki amounted to 21.2 µM. Besides, the IC50 came to 12.8 µM in data set [2] (Table 1, pacing rate 3 Hz) and 24.9 µM in data set [3] (Table 1, pacing rate 0.1 Hz).

The record behind these values is US9090535B2, “Hydroxylated tricyclic compounds” (Nektar Therapeutics, priority 2010, dated 2015).
